The target of this assay is T1, human CaSR (Homo sapiens, UniProt P41180).
T1 construct: The ORF coding for the human CaSR (genebank: NM_000388)
T1 sequence (P41180 20-1078): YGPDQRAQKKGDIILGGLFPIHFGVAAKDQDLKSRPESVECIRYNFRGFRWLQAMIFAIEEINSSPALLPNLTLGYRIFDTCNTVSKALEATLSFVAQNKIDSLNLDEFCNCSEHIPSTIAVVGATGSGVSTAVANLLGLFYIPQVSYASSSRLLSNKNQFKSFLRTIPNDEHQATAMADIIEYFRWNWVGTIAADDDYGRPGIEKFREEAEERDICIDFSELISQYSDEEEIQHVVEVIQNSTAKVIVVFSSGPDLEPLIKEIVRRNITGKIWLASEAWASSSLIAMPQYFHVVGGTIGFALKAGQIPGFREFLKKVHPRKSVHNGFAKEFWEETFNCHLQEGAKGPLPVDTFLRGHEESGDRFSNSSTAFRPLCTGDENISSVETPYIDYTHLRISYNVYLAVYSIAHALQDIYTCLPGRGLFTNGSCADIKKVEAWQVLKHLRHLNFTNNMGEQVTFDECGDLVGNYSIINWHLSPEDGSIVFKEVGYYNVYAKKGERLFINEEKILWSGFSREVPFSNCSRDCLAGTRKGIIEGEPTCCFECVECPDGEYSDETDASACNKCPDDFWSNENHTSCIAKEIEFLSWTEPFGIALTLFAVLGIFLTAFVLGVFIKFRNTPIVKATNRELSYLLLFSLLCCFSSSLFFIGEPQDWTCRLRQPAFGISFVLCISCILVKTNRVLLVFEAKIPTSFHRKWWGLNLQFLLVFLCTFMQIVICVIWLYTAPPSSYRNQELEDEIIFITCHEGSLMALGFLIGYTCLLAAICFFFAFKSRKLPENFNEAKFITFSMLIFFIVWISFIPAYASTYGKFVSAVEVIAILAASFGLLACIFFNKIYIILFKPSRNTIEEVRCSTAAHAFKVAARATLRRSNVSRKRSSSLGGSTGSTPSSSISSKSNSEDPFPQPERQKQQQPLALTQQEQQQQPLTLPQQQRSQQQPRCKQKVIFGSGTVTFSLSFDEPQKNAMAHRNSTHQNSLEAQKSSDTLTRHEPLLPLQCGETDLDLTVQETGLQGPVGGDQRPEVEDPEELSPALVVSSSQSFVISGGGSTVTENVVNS
Kind of assay: Functional whole cell assay (modulation of human CaSR), IP1 accumulation in CHO-K1 cells. Type of assay: cell-based. Particulars: CHO-K1 cells stably expressing human CaSR, final Ca2+ 1.9 mM, IP1 readout; concentration giving 50% of maximum agonistic response. The text has this:
The assay investigates a compound's functional ability to act as a biological positive modulator on the human CaSR. Activation of the receptor expressed on CHO-K1 cells is detected through the G alpha q pathway, the activation of phospholipase C and the accumulation of intracellular inositol phosphate (IP) as described earlier [Sandrine Ferry, Bruno Chatel, Robert H. Dodd, Christine Lair, Danielle Gully, Jean-Pierre Maffrand, and Martial Ruat. Effects of Divalent Cations and of a Calcimimetic on Adrenocorticotropic Hormone Release in Pituitary Tumor Cells. Biochemical and biophysical research Communications 238, 866-873 (1997)]. The human CaSR is stably expressed on a CHO-K1 cell clone, stimulated with a basal level of calcium and challenged with the tested compound. The level of IP1 is determined using the IP-One Terbium htrf kit (Cisbio, France). CHO-K1 cells not transfected with the CaSR fail to elicit an IP1 response upon calcium and/or compound stimulation.
The ORF coding for the human CaSR (genebank: NM_000388) was acquired from Invitrogen Corp, USA and subsequently cloned into the mammalian expression vector pCDA3.1.
CHO-K1 cells were transfected using Lipofectamine according to manufacturer's protocol (400.000 cells/well were seeded in a 6-well plate and transfected after 24 hours using 2 μg DNA and 5 μl lipofectamine). After another 24 hours the cells were detached, seeded and subjected to 1 mg/ml of G-418. Following 7 days growth single clones were picked, the CaSR expression evaluated using the 5C10 antibody against CaSR, the clones with the highest expression were selected and tested for functional response. The preferred clone was cultured according to standard procedures described in ATCC (American Type Culture Collection) protocols for CHO-K1 with the addition of 500 μg/ml G-418.
On the assay day, cells were thawed, harvested and resuspended to 4*10^6 cells/ml in stimulation buffer (containing: Hepes 10 mM, MgCl2 0.5 mM, KCl 4.2 mM, NaCl 146 mM, glucose 5.5 mM, LiCl 50 mM, BSA 0.5% at pH 7.4). Ten μl cell solution was pipetted into wells of a white 384-well plate (Perkin Elmer Optiplate) containing 2 μl compound diluted in assay buffer (containing: Hepes 10 mM, MgCl2 0.5 mM, KCl 4.2 mM, NaCl 146 mM, glucose 5.5 mM, LiCl 50 mM, CaCl2 11.4 mM at pH 7.4), resulting in a final Ca^2+ concentration of 1.9 mM. After compound stimulation for 1 hour at 37° C. and 15 min at room temperature, 10 ul of IP-One assay detection reagent (prepared as described by the IP-One assay kit manufacturer) was added and the plate was incubated for another 1 hour at room temperature. Finally the plate was read using a Perkin Elmer EnVision, according to the protocol supplied by the IP-One assay kit manufacturer. The FRET ratio was calculated by dividing the 665 nm emission signal with that of the 615 nm.
The molar concentration of a compound that produces 50% of the maximum agonistic response (the […] value) is calculated according to the equation “General sigmoidal curve with Hill slope, a to d” (Equation 1). This model describes a sigmoidal curve with an adjustable baseline. The equation can be used to fit curves where response is either increasing or decreasing with respect to the independent variable, X.
y=(a−d)/(1+(x/c)̂b)+d Equation 1.
x=concentration of tested compound y=response (%) a=min response as compound concentration approaches 0 d=max response as concentration of tested compound is increasing c=IC50 for the curve b=Hill coefficient or curve slope

Molecule `C[C@@H](N[C@H]1CC[C@@H](c2ccc(NCCNCCO)nc2)C1)c1cccc2ccccc12.O=CO.O=CO.O=CO` [Compound 101, 2-[2-[[5-[(1R,3S)-3-[[(1R)-1-(1-Naphthyl)ethyl]amino]cyclopentyl]-2-pyridyl]amino]ethylamino]ethanol] yielded an EC50 of less than 200 nM.

As for `COc1cc([C@@H](C)N[C@H]2CC[C@@H](c3ccc(NC4CCNCC4)nc3)C2)ccc1F` [Compound 107, 5-[(1R,3S)-3-[[(1R)-1-(4-Fluoro-3-methoxy-phenyl)ethyl]amino]cyclopentyl]-N-(4-piperidyl)pyridin-2-amine], the EC50 is less than 200 nM.

For `COc1cc([C@@H](C)N[C@H]2CC[C@@H](c3ccc(N4CCNC(=O)C4)nc3)C2)ccc1F` [Compound 109, 4-[5-[(1R,3S)-3-[[(1R)-1-(4-Fluoro-3-methoxy-phenyl)ethyl]amino]cyclopentyl]-2-pyridyl]piperazin-2-one], the concentration giving a half-maximal response (EC50) is less than 200 nM.

In the case of `COc1cc([C@@H](C)N[C@H]2CC[C@@H](c3ccc(NCCS(N)(=O)=O)nc3)C2)ccc1F` [Compound 113, 2-[[5-[(1R,3S)-3-[[(1R)-1-(4-Fluoro-3-methoxyphenyl)ethyl]amino]cyclopentyl]-2-pyridyl]amino]ethanesulfonamide], the EC50 is less than 200 nM.

With `COc1cc([C@@H](C)N[C@H]2CC[C@@H](c3ccc(NCC(O)CO)nc3)C2)ccc1F` (stereo partly drawn) [Compound 115, 3-[[5-[(1R,3S)-3-[[(1R)-1-(4-Fluoro-3-methoxyphenyl)ethyl]amino]cyclopentyl]-2-pyridyl]amino]propane-1,2-diol], the EC50 is 200 to 1000 nM.

In turn, `COc1cc([C@@H](C)N[C@H]2CC[C@@H](c3ccc(N4CCN(C(C)=O)CC4)nc3)C2)ccc1F` [Compound 116, 1-[4-[5-[(1R,3S)-3-[[(1R)-1-(4-Fluoro-3-methoxyphenyl)ethyl]amino]cyclopentyl]-2-pyridyl]piperazin-1-yl]ethanone] yielded an EC50 of less than 200 nM.

In turn, `COc1cc([C@@H](C)N[C@H]2CC[C@@H](c3cnc(N4CCNC(=O)C4)nc3)C2)ccc1F` [Compound 126, 4-[5-[(1R,3S)-3-[[(1R)-1-(4-Fluoro-3-methoxy-phenyl)ethyl]amino]cyclopentyl]pyrimidin-2-yl]piperazin-2-one] gave an EC50 of less than 200 nM.

In turn, `COc1cc([C@@H](C)N[C@H]2CC[C@@H](c3cnc(N4CCN(C(C)=O)CC4)nc3)C2)ccc1F.O=CO` [Compound 127, 1-[4-[5-[(1R,3S)-3-[[(1R)-1-(4-Fluoro-3-methoxy-phenyl)ethyl]amino]cyclopentyl]pyrimidin-2-yl]piperazin-1-yl]ethanone] registered an EC50 of 200 to 1000 nM.

What is called EC50 is the concentration that produces a half-maximal response. Low values mean an effect from little substance, high ones a need for much substance.

The values are drawn from patent US20130267516A1, “SUBSTITUTED CYCLOPENTYL-AZINES AS CASR-ACTIVE COMPOUNDS” (LEO PHARMA A/S, priority 2010, published 2013).
